Measured values from ChEMBL document CHEMBL1201862, “PubChem BioAssay data set” (2004).
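Step 1: Grow cells in 96-well plates. Step 2: Expose to compound for 48 hours at 5 concentrations. Step 3: Interpolate endpoints linearly; if unreached, use highest concentration. GI50 marks 50% less growth.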 Activity calls are given as the source filed them. No stated cut-off is given here; in the data, active = GI50 up to about 1.1 µM and inactive = higher.

Columns and labels:
Test in all cases: inhibition of tumour cell growth, NCI panel, 48 h
SR = test system: SR
UACC-62 = test system: UACC-62
SK-MEL-28 = test system: SK-MEL-28
SNB-19 = test system: SNB-19
MDA-MB-435 = test system: MDA-MB-435
T47D = test system: T47D
A498 = test system: A498
MCF7 = test system: MCF7
RXF 393 = test system: RXF 393
U-251 = test system: U-251
M14 = test system: M14
LOX IMVI = test system: LOX IMVI
OVCAR-4 = test system: OVCAR-4
A549 = test system: A549
TK-10 = test system: TK-10
MDA-MB-231 = test system: MDA-MB-231
NCI-H226 = test system: NCI-H226

Row | Compound | GI50 (SR) | GI50 (UACC-62) | GI50 (SK-MEL-28) | GI50 (SNB-19) | GI50 (MDA-MB-435) | GI50 (T47D) | GI50 (A498) | GI50 (MCF7) | GI50 (RXF 393) | GI50 (U-251) | GI50 (M14) | GI50 (LOX IMVI) | GI50 (OVCAR-4) | GI50 (A549) | GI50 (TK-10) | GI50 (MDA-MB-231) | GI50 (NCI-H226)
1 | CCCn1cnc2c(SCc3ccc(Cl)cc3)nc(N)nc21 | 13.5 µM (inactive) | 21.6 µM (inactive) | 29 µM (inactive) | 51.6 µM (inactive) | 23.1 µM (inactive) | 18.9 µM (inactive) | 16.7 µM (inactive) | 31 µM (inactive) | 22.3 µM (inactive) | 23.1 µM (inactive) | 32.4 µM (inactive) | 22 µM (inactive) | 32.7 µM (inactive) | 39.4 µM (inactive) | 13.5 µM (inactive) | 16.9 µM (inactive) | –
2 | N#CCCC1C(C#N)C2(Cl)CC1(Cl)C(Cl)=C2Cl (centres undefined) | – | > 10 µM (inactive) | > 10 µM (inactive) | > 10 µM (inactive) | > 10 µM (inactive) | > 10 µM (inactive) | > 10 µM (inactive) | > 10 µM (inactive) | > 10 µM (inactive) | > 10 µM (inactive) | > 10 µM (inactive) | > 10 µM (inactive) | > 10 µM (inactive) | > 10 µM (inactive) | > 10 µM (inactive) | > 10 µM (inactive) | > 10 µM (inactive)
3 | COC(C/C=C\C=C\CC/C=C/CC(C)/C=C/C(=C\C(=O)O)CC(=O)O)/C(C)=C\C=C(/C)C(=O)O (centres undefined) | > 100 µM (inactive) | > 100 µM (inactive) | > 100 µM (inactive) | > 100 µM (inactive) | > 100 µM (inactive) | – | > 100 µM (inactive) | – | – | > 100 µM (inactive) | > 100 µM (inactive) | – | > 100 µM (inactive) | > 100 µM (inactive) | > 100 µM (inactive) | > 100 µM (inactive) | –
4 | Cc1ccc(/N=N/NCCCCN/N=N/c2ccc(C)cc2)cc1 | 17.5 µM (inactive) | > 100 µM (inactive) | > 100 µM (inactive) | – | 11.8 µM (inactive) | 11.5 µM (inactive) | 54.6 µM (inactive) | 78.3 µM (inactive) | > 100 µM (inactive) | > 100 µM (inactive) | 8.05 µM (inactive) | 1.17 µM (inactive) | > 100 µM (inactive) | 6.04 µM (inactive) | 1.65 µM (inactive) | > 100 µM (inactive) | > 100 µM (inactive)
5 | Cc1cn(C2CC(O)C(Cn3nncc3Cn3ncc(=O)[nH]c3=O)O2)c(=O)[nH]c1=O (centres undefined) | – | > 100 µM (inactive) | > 100 µM (inactive) | > 100 µM (inactive) | > 100 µM (inactive) | > 100 µM (inactive) | > 100 µM (inactive) | > 100 µM (inactive) | > 100 µM (inactive) | > 100 µM (inactive) | > 100 µM (inactive) | > 100 µM (inactive) | > 100 µM (inactive) | > 100 µM (inactive) | > 100 µM (inactive) | > 100 µM (inactive) | > 100 µM (inactive)
6 | CC(=O)Nc1ccc2nc(N)n[n+]([O-])c2c1 | > 100 µM (inactive) | > 100 µM (inactive) | > 100 µM (inactive) | > 100 µM (inactive) | > 100 µM (inactive) | 79.8 µM (inactive) | > 100 µM (inactive) | > 100 µM (inactive) | – | > 100 µM (inactive) | > 100 µM (inactive) | > 100 µM (inactive) | > 100 µM (inactive) | > 100 µM (inactive) | 77.8 µM (inactive) | > 100 µM (inactive) | > 100 µM (inactive)
7 | CC[N+]1(C)CCC(O)(c2ccc(Cl)cc2)C(C(=O)c2ccc(Cl)cc2)C1 (centres undefined) | 6.34 µM (inactive) | 14.7 µM (inactive) | 16 µM (inactive) | 17.2 µM (inactive) | 19.8 µM (inactive) | 2.79 µM (inactive) | 27.9 µM (inactive) | 1.1 µM (active) | 14.4 µM (inactive) | 24.5 µM (inactive) | 17.4 µM (inactive) | 5.58 µM (inactive) | 29.3 µM (inactive) | – | 17.7 µM (inactive) | 14.9 µM (inactive) | 23.8 µM (inactive)
8 | CCC1=NC(C(F)(F)F)(C(F)(F)F)N=C(N2CCOCC2)O1 | > 100 µM (inactive) | > 100 µM (inactive) | > 100 µM (inactive) | > 100 µM (inactive) | > 100 µM (inactive) | > 100 µM (inactive) | – | > 100 µM (inactive) | > 100 µM (inactive) | > 100 µM (inactive) | > 100 µM (inactive) | > 100 µM (inactive) | > 100 µM (inactive) | > 100 µM (inactive) | > 100 µM (inactive) | > 100 µM (inactive) | –
9 | CC1CC[C@@]2(OC1)OC1C[C@H]3[C@@H]4CC=C5CC(OC6OC(CO)C(OC7OC(CO)C(O)C(OC8OCC(O)C(O)C8O)C7OC7OC(CO)C(O)C(O)C7O)C(O)C6O)CCC5(C)[C@H]4CCC3(C)C1[C@@H]2C (some centres undefined) | 7.23 µM (inactive) | 21.7 µM (inactive) | 12.3 µM (inactive) | 10.3 µM (inactive) | 5.78 µM (inactive) | 5.71 µM (inactive) | 4.69 µM (inactive) | 6.3 µM (inactive) | 4.76 µM (inactive) | 4.68 µM (inactive) | 11.2 µM (inactive) | 4.48 µM (inactive) | 6.58 µM (inactive) | 4.38 µM (inactive) | 7.43 µM (inactive) | 4.66 µM (inactive) | 13.3 µM (inactive)
10 | COC(c1ccc(C(C)(C)C)cc1)(c1ccc(C(C)(C)C)cc1)c1cc(C(O)(c2cc(C(OC)(c3ccc(C(C)(C)C)cc3)c3ccc(C(C)(C)C)cc3)c(C)cc2C)c2cc(C(OC)(c3ccc(C(C)(C)C)cc3)c3ccc(C(C)(C)C)cc3)c(C)cc2C)c(C)cc1C | > 100 µM (inactive) | > 100 µM (inactive) | > 100 µM (inactive) | – | > 100 µM (inactive) | > 100 µM (inactive) | > 100 µM (inactive) | > 100 µM (inactive) | > 100 µM (inactive) | > 100 µM (inactive) | > 100 µM (inactive) | > 100 µM (inactive) | > 100 µM (inactive) | > 100 µM (inactive) | > 100 µM (inactive) | > 100 µM (inactive) | 92.5 µM (inactive)
11 | COc1ccc2c(c1)C1=NCCN(CCO)c3ccc([N+](=O)[O-])c(c31)N2 | 0.0368 µM (active) | 0.422 µM (active) | 0.624 µM (active) | 0.59 µM (active) | 0.493 µM (active) | 0.532 µM (active) | 0.798 µM (active) | 0.42 µM (active) | 0.494 µM (active) | 0.506 µM (active) | 0.407 µM (active) | 0.127 µM (active) | 0.54 µM (active) | 0.427 µM (active) | 0.63 µM (active) | 0.468 µM (active) | 0.331 µM (active)
12 | CC1ON2CCCC2[C@H]1C(=O)N1C2CC3CCC2(CS1(=O)=O)C3(C)C (some centres undefined) | > 100 µM (inactive) | > 100 µM (inactive) | > 100 µM (inactive) | – | > 100 µM (inactive) | > 100 µM (inactive) | > 100 µM (inactive) | > 100 µM (inactive) | > 100 µM (inactive) | > 100 µM (inactive) | > 100 µM (inactive) | > 100 µM (inactive) | > 100 µM (inactive) | > 100 µM (inactive) | > 100 µM (inactive) | > 100 µM (inactive) | > 100 µM (inactive)
